Test results reported in ChEMBL document CHEMBL1201862, “PubChem BioAssay data set” (2004).
Calls of active or inactive are those of the source. Rule as the data show it, for most assays here: actives have a measured EC50 and inactives only a lower limit.

Key:
[1] = target: T1, High affinity choline transporter 1 (Homo sapiens, UniProt Q9GZV3); assay: human choline transporter blockers, potency – cell-based, 5-point CRC, membrane potential dye, dose response (AID 504840); type: functional
T1 sequence (Q9GZV3 whole entry): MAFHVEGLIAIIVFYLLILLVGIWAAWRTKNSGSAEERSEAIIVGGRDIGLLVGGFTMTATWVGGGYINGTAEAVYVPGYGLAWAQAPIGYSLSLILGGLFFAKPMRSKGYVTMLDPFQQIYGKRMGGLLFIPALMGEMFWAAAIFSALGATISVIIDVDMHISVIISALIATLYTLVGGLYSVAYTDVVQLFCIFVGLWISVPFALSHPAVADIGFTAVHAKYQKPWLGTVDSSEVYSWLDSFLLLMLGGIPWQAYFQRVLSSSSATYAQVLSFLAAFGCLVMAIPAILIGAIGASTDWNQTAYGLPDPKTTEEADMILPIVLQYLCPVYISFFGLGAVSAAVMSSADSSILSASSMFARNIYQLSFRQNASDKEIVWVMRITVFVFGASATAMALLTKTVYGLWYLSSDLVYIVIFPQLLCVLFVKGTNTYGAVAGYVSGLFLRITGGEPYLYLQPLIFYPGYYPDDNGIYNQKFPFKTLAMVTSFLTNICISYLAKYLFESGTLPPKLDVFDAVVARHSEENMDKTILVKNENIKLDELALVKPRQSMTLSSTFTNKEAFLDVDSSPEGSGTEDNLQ

Protein RecA = target: T2, Protein RecA (Mycobacterium tuberculosis, UniProt P9WHJ3); assay: Fluorescence Cell-Free Homogeneous Dose Retest to Identify Inhibitors of RecA-Intein Splicing Activity. [Related pubchem assays (depositor defined):AID2097, AID2223, AID489010, AID492950]; type: functional
T2 sequence (P9WHJ3 whole entry): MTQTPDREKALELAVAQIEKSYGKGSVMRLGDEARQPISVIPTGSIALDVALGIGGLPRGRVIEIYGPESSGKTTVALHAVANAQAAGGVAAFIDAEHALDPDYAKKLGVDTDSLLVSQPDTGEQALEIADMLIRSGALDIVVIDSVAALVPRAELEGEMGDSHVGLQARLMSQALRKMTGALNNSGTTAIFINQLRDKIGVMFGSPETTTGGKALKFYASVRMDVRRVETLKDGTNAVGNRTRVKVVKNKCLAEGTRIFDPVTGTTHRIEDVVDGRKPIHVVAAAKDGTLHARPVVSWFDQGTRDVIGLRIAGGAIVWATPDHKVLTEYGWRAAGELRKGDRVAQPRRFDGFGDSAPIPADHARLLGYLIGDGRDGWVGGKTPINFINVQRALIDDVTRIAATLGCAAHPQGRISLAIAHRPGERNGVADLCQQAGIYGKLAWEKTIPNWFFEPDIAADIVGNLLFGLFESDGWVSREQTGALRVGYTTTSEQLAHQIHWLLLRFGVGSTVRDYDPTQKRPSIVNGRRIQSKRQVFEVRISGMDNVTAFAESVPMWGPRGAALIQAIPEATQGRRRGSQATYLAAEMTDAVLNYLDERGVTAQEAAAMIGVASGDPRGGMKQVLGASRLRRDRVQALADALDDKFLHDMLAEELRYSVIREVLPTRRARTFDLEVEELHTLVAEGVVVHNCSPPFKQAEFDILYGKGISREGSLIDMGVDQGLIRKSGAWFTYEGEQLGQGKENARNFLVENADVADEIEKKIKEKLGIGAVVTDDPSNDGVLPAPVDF

[2] = DRD fibroblast viability loss – cell-based, non-viral oncogenic, luminescence, dose response (AID 1934); type: functional; details: Homo sapiens
[3] = viability of HCT116 lacking mutant beta-catenin – cell-based, human colon tumor, dose response (AID 1045); type: functional;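 also: HCT116 colon tumor cells with beta catenin knocked out; cells exposed to compound for 60 hours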
BJ [4] = assay: BJ-TERT fibroblast viability loss – cell-based, RAS-independent, luminescence, dose response (AID 1933); type: functional; details: Homo sapiens
[5] = target: T3, Replicative DNA helicase DnaB (Mycobacterium tuberculosis, UniProt P9WMR3); assay: DnaB intein splicing inhibitors, dose response, biochemical, cell-free fluorescence (AID 449749); type: functional
T3 sequence (P9WMR3 whole entry): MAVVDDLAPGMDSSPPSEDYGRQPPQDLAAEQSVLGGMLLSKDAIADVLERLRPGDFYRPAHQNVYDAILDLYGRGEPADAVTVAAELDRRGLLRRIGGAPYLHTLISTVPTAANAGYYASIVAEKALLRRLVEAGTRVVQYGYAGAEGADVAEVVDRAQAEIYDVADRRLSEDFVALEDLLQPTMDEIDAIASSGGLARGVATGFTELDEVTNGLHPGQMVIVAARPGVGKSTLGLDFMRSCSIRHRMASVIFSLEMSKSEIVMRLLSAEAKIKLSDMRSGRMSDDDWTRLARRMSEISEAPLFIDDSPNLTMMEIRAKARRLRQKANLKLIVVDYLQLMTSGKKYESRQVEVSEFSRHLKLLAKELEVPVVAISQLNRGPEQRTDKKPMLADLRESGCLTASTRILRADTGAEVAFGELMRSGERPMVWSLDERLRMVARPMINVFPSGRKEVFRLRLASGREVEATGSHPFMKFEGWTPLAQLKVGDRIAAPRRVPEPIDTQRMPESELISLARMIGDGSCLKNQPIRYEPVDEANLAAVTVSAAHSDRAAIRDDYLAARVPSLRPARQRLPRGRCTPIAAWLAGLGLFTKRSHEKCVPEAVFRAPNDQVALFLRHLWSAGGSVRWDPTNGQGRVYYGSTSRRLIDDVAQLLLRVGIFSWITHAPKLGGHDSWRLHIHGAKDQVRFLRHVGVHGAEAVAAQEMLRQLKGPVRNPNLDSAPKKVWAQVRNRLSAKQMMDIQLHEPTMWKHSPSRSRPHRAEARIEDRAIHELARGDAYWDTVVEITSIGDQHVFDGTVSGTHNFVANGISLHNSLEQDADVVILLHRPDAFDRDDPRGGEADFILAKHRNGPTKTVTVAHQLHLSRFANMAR

BJ [6] = assay: cells; type: functional, cell-based; details: Homo sapiens
BJ [7] = assay: BJ-TERT-LT-ST fibroblast viability loss – cell-based, RAS-independent, luminescence, dose response (AID 1935); type: functional; details: Homo sapiens;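 also: BJ fibroblasts immortalized with TERT plus LT and ST oncogenes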
INS1 = assay: INS-1E survival protection against cytokine death – cell-based, luminescence, retest, dose response (AID 449756); type: functional; details: Rattus norvegicus;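 also: cell death triggered by IL-1 beta plus TNF-alpha plus IFN-gamma mixture; protective hits raise ATP signal compared with cytokine alone wells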

Row | Structure (SMILES) | IC50 [1] | EC50 (Protein RecA) | EC50 [2] | EC50 [3] | EC50 (BJ [4]) | AC50 [5] | EC50 (BJ [6]) | EC50 (BJ [7]) | AC50 (INS1)
1 | O=[N+]([O-])c1ccc(O)c(C2=NNC(c3ccccc3F)C2)c1 (centres undefined) | 15.1 µM (active) |  |  |  |  |  |  |  | 
2 | Cc1oc2c(c1C(=O)N1CCC(C)CC1)C(=O)c1ccccc1C2=O |  | 1.09 µM (active) | 16.5 µM (active) | 1.86 µM (active) | 17.6 µM (active) | 73.9 µM (active) | 13.3 µM (active) | > 75 µM (not active) | 2.01 µM (active)
